Laboratory results: patent US20240368163A1, “COMPOUNDS AND METHODS FOR MODULATING SPLICING” (REMIX THERAPEUTICS INC., priority 2021, published 2024)

Key:
[1] = system: HTT; assay: Splicing RT-qPCR assay, HTT mRNA canonical junction (CJ) and alternative junction (AJ); assay type: cell-based, human; settings: Homo sapiens; for AC50: increase in AJ mRNA
Summary of the method: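 Splicing switch read by one-step RT-qPCR of canonical and alternative exon junctions, housekeeper-normalized (GAPDH/GUSB/PPIA), 2^(−ΔΔCt) vs DMSO as percent response. Cells (A673 or K562) dosed 24 h, 11 points 3-fold from 10 uM, DMSO ≤0.25%.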

[2] = system: HTT; assay: HiBiT protein abundance assay, HTT; assay type: cell-based, human; settings: Homo sapiens, K562, 24 h, Table 13A, modified K562 cells
Summary of the method: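 HiBiT-tagged endogenous targets in K562 cells treated 24 h at 37° C. with 10-point 3-fold dilutions (top 10 μM, DMSO ≤0.25%). Luminescence read after lytic LgBiT detection; response normalised to unmodified-cell and DMSO controls, IC50 interpolated at 50% from four-parameter logistic fit.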

[3] = 24 h, A673 or K562 cells, 24 hours treatment, RT-qPCR
[4] = RT-qPCR panel, canonical junction mRNA, compound concentration having 50% response in CJ decrease, read-out: HTT IC50 (decrease in CJ mRNA levels)
[5] = 24 h, decrease in CJ mRNA, A673 or K562 cells, 24 hours treatment, RT-qPCR, read-out: HTT CJ IC50

SMILES	AC50 [1, 3]	IC50 [1, 4]	IC50 [2]	IC50 [1, 5]
CN(c1ccc(-c2cc(F)c(-c3cn[nH]c3)c3cn[nH]c23)nn1)[C@@H]1C[C@H]2CC(F)(F)[C@@H](C1)N2 (stereo in doubt) [Compound 378, 6,6-difluoro-N-{6-[5-fluoro-4-(1H-pyrazol-4-yl)-1H-indazol-7-yl]pyridazin-3-yl}-N-methyl-8-azabicyclo[3.2.1]octan-3-amine]	< 100 nM	< 100 nM	< 100 nM	
CN(c1ccc(-c2ccc(-c3cn[nH]c3)c3ncsc23)nn1)[C@@H]1C[C@H]2CC(F)(F)[C@@H](C1)N2 (stereo in doubt) [Compound 379, 6,6-difluoro-N-methyl-N-{6-[4-(1H-pyrazol-4-yl)-1,3-benzothiazol-7-yl]pyridazin-3-yl}-8-azabicyclo [3.2.1]octan-3-amine]	< 100 nM	< 100 nM	< 100 nM	
CN(c1ccc(-c2ccc(-c3cn[nH]c3)c3cn[nH]c23)nn1)[C@@H]1C[C@H]2CC[C@@H](C1)N2 [Compound 104]	1000 to 10000 nM	100 to 1000 nM	< 100 nM	100 to 1000 nM
CN(c1ccc(-c2ccc(-n3cccn3)c3cn[nH]c23)nn1)[C@@H]1C[C@H]2CC[C@@H](C1)N2 [Compound 105]	100 to 1000 nM	< 100 nM	< 100 nM	
CN(c1ccc(-c2ccc(-c3cn[nH]c3)c3ncsc23)nn1)C1CC(C)(C)NC(C)(C)C1 [Compound 132]	100 to 1000 nM	100 to 1000 nM	100 to 1000 nM	100 to 1000 nM
CN(c1ccc(-c2ccc(-c3cn[nH]c3)c3cn[nH]c23)nn1)C1CC(C)(C)NC(C)(C)C1 [Compound 137]	100 to 1000 nM	100 to 1000 nM	100 to 1000 nM	100 to 1000 nM
CN(c1ccc(-c2ccc(-c3ccc(=O)n(C)c3)c3scnc23)nn1)C1CC(C)(C)NC(C)(C)C1 [Compound 178]	> 10000 nM	> 10000 nM	> 10000 nM	> 10000 nM
CC1(C)CC(Oc2ccc(-c3ccc(-c4cn[nH]c4)c4ncsc34)nn2)CCN1 (centres unmarked) [Compound 182]	1000 to 10000 nM	1000 to 10000 nM	< 100 nM	1000 to 10000 nM
c1nc2c(-c3cn[nH]c3)ccc(-c3ccc(OC4CCNCC4)nn3)c2s1 [Compound 183]	100 to 1000 nM	100 to 1000 nM	< 100 nM	100 to 1000 nM
c1nc2c(-c3cn[nH]c3)ccc(-c3ccc(O[C@@H]4C[C@H]5CC[C@@H](C4)N5)nn3)c2s1 [Compound 184]	< 100 nM	100 to 1000 nM	< 100 nM	100 to 1000 nM
CC1(C)CC(Nc2ccc(-c3ccc(-c4cn[nH]c4)c4ncsc34)nn2)CC(C)(C)N1 [Compound 186]	< 100 nM	< 100 nM	< 100 nM	
c1nc2c(-c3cn[nH]c3)ccc(-c3ccc(N[C@@H]4C[C@H]5CC[C@@H](C4)N5)nn3)c2s1 [Compound 202]	< 100 nM	< 100 nM	< 100 nM	
CCN(c1ccc(C2=CC=C(c3cn[nH]c3)C3N=CSC23)nn1)[C@@H]1C[C@H]2CC[C@@H](C1)N2 (some centres unmarked) [Compound 203]	100 to 1000 nM	100 to 1000 nM	< 100 nM	100 to 1000 nM
CN(c1ccc(-c2ccc(-c3cn[nH]c3)c3ncsc23)nn1)[C@H]1C[C@]2(C)CC[C@](C)(C1)N2 [Compound 204]	< 100 nM	< 100 nM	< 100 nM	
[2H]C([2H])([2H])N(c1ccc(-c2ccc(-c3cn[nH]c3)c3ncsc23)nn1)[C@@H]1C[C@H]2CC[C@@H](C1)N2 [Compound 210]	< 100 nM	< 100 nM	< 100 nM	
CN(c1ccc(-c2ccc(-c3cn[nH]c3)c3ncsc23)nn1)[C@@H]1C[C@H]2CC[C@@H](C1)N2 [Compound 213]	< 100 nM	< 100 nM	< 100 nM	
c1nc2c(-c3cn[nH]c3)ccc(-c3ccc(N[C@@H]4C[C@H]5CCC[C@@H](C4)N5)nn3)c2s1 [Compound 215]	< 100 nM	< 100 nM	< 100 nM	
Fc1cc(-c2ccc(O[C@@H]3C[C@H]4CC[C@@H](C3)N4)nn2)c2[nH]ncc2c1-c1cn[nH]c1 [Compound 216]	< 100 nM	< 100 nM	< 100 nM	
CN(c1ccc(-c2ccc(-c3cn[nH]c3)c3ncsc23)nn1)[C@@H]1C[C@H]2CCC[C@@H](C1)N2 [Compound 226]	< 100 nM	< 100 nM	< 100 nM	
[2H]C([2H])([2H])N(c1ccc(-c2ccc(-c3cn[nH]c3)c3ncsc23)nn1)[C@@H]1C[C@H]2CCC[C@@H](C1)N2 [Compound 227]	< 100 nM	< 100 nM	< 100 nM	
